Assay results as given in patent US5336672A, “Increasing egg production in poultry” (Board of Supervisors of Louisiana State University and …, priority 1992, dated 1994).
Like-named read-outs stand apart in the source and are kept apart here.

Tests used:
[1] = tested on: turkey breast tissue; details: supplemental Cr; Anderson et al. 1989; cited from earlier work
[2] = tested on: laying hen; details: Jensen et al. 1978; cited from earlier work
[3] = tested on: turkey poults; details: Steele et al. 1979; Rosebrough et al. 1981; may depend on Cr (III) in an organic form; cited from earlier work
[4] = tested on: adult men; details: Cr supplementation; cited from earlier work
[5] = tested on: rabbits; details: cited from earlier work
[6] = tested on: laying hens; details: dietary; Jensen et al. 1980; cited from earlier work
[7] = tested on: swine; details: Hill et al. 1986; cited from earlier work
[8] = tested on: rats; details: 200 mg/kg picolinic acid in diet; cited from earlier work
[9] = tested on: laying hens; assay: Haugh units of eggs, Example 1; assay type: in vivo, Hyline 36 commercial-type laying hens; details: for Haugh units: mean of eggs of Days 2, 9, 16, 23, SEM 1.8
Description: (§1) Hyline 36 commercial-type laying hens were taken from the Louisiana State University Agricultural Center Poultry Unit. The hens were 32-36 weeks of age during the 28 days of the trial. A randomized complete block design was used, and the hens were blocked on location in the barn. Hens were penned individually in cages (0.30×0.41 m) in an open front building. Each of the six treatments described below was replicated ten times, with one hen per replicate. The hens were fed a corn-soybean meal laying hen basal diet for one week. The composition of the diet is set forth in Table 1, and was formulated to meet or exceed the requirements for all nutrients as stated in "Nutrient Requirements of Poultry," National Research Council (1984). The hens were then randomly allotted to a treatment, and were fed the experimental diets during a 28-day trial. The following treatments were used: (1) Corn-soybean meal basal (B), (2) B+50 ppb Cr, (3) B+100 ppb Cr, (4) B+200 ppb Cr, (5) B+400 ppb Cr, and (6) B+800 ppb Cr. Cromium was administered as chromium picolinate. Treatment diets and water were provided on an ad libitum basis.
(§2) Egg production was recorded daily, and eggs were collected on Days 2, 9, 16, and 23 for determination of specific gravity [weight in air/(weight in air-weight in water)] and Haugh units. (Haugh unit=100 Log10 (Albumen height (in mm)+(7.57-(1.7) (Egg mass in grams)^037))). Eggs were collected on Days 0, 7, 14, 21, and 28 for CH analysis. To determine yolk CH, eggs were hard-cooked by immersion in boiling water for 5 min. Yolks were removed and weighed. The entire yolk was blended with a volume of isopropyl alcohol proportional to the yolk weight (10 ml/g of yolk). The cholesterol content of this extract (mg per g wet weight) was determined by an automated procedure based on the Lieberman-Burchard method. One egg was collected on Day 22 for determination of percentage of egg fat using the acid hydrolysis method, and one egg was collected on Day 24 for determination of percentage of egg crude protein by the Kjeldahl N method.
(§3) Data were analyzed by analysis of variance. Linear, quadratic, and cubic contrasts were used to evaluate the treatment effects. Egg production, specific gravity, Haugh units, and CH were measured over time and analyzed by split-plot analyses using hen(trt*rep) as the error term in the model.

[10] = tested on: laying hens; assay: Percentage of egg crude protein (Kjeldahl N method), Example 1; assay type: in vivo, Hyline 36 commercial-type laying hens; details: for Egg Protein: egg of Day 24, SEM .2, chromium quadratic effect P < .02
Description: as §1, §2, §3

[11] = tested on: laying hens; assay: Egg production, Example 2 (eight-week trial, hens 28-36 weeks of age); assay type: in vivo, Hyline 36 commercial-type laying hens; details: for Egg Production: eight weeks, SEM 2.7
Description: as §1, §2, §3
(§4) The procedures described in Example 1 were followed, except as noted. The trial lasted eight weeks, and the hens were 28-36 weeks of age during the eight weeks of the trial. The treatments used were (1) Basal (B), (2) B+100 ppb Cr, (3) B+200 ppb Cr, (4) B+300 ppb Cr, and (5) B+400 ppb Cr. Only egg production is reported.

[12] = tested on: laying hens; assay: Egg yolk cholesterol (Lieberman-Burchard method), Example 1; assay type: in vivo, Hyline 36 commercial-type laying hens; details: for Egg CH (cholesterol): mean of eggs of Days 0, 7, 14, 21, 28, SEM .2
Description: as §1, §2, §3

[13] = tested on: laying hens; assay: Egg production, Example 3 (eight-week trial, hens 48-56 weeks of age); assay type: in vivo, Hyline 36 commercial-type laying hens; details: for Egg Production: eight weeks, SEM 4.3
Description: as §1, §2, §3, §4
The procedures of Example 2 were followed, except that the hens were 48-56 weeks of age during the eight weeks of the trial.

[14] = tested on: laying hens; assay: Egg production, Example 1 (28-day feeding trial, hens 32-36 weeks of age); assay type: in vivo, Hyline 36 commercial-type laying hens; details: for Egg Production: 28 days, mean of 10 replicates, SEM 2.7, chromium cubic effect P < .03
Description: as §1, §2, §3

[15] = tested on: laying hens; assay: Percentage of egg fat (acid hydrolysis method), Example 1; assay type: in vivo, Hyline 36 commercial-type laying hens; details: for Egg fat: egg of Day 22, SEM .2, chromium quadratic effect P < .10; for Effect on percentage of egg fat: Cr quadratic, P<0.1
Description: as §1, §2, §3

[16] = tested on: laying hens; assay: Specific gravity of eggs, Example 1; assay type: in vivo, Hyline 36 commercial-type laying hens; details: for Specific gravity: mean of eggs of Days 2, 9, 16, 23, SEM .001
Description: as §1, §2, §3

[17] = overall, 100-400 ppb Cr, P>0.10
[18] = hens receiving 100 and 200 ppb Cr

[Cr] [Cr, chromium]
Turkey breast tissue [1]: small increase | Biological activity in the laying hen [2]: biologically active | Growth rate of turkey poults [3]: improved | HDL cholesterol [4]: increases | Serum triglycerides [4]: decreases | Cholesterol (CH) accumulation [5]: decreased | Removal rate of CH already deposited in the aorta [5]: increased

O.O.O.O.O.O.[Cl][Cr]([Cl])[Cl] [CrCl3.6H2 O]
Effect on egg production [6]: no positive effect

O=C(O)c1ccccn1 [picolinic acid, pyridine-2-carboxylic acid]
Growth rates [7]: faster growth rates | Zinc absorption [7]: did not aid zinc absorption | Growth rates in rats [8]: greater growth rates

chromium picolinate
Haugh units ([9]; B + 50 ppb Cr in diet): 82.6 | Haugh units ([9]; B + 100 ppb Cr in diet): 84.6 | Haugh units ([9]; B + 200 ppb Cr in diet): 82.0 | Haugh units ([9]; B + 400 ppb Cr in diet): 85.0 | Haugh units ([9]; B + 800 ppb Cr in diet): 79.7 | Effect on Haugh units ([9]; P>0.1): not affected | Egg Protein ([10]; B + 50 ppb Cr in diet): 12.2% | Egg Protein ([10]; B + 100 ppb Cr in diet): 12.2% | Egg Protein ([10]; B + 200 ppb Cr in diet): 12.2% | Egg Protein ([10]; B + 400 ppb Cr in diet): 12.6% | Egg Protein ([10]; B + 800 ppb Cr in diet): 12.3% | Effect on percentage of egg crude protein ([10]; CrPic supplementation to the diet, Cr quadratic, P<0.02): reduced | Egg Production ([11]; B + 100 ppb Cr in diet): 85.2% | Egg Production ([11]; B + 200 ppb Cr in diet): 82.3% | Egg Production ([11]; B + 300 ppb Cr in diet): 84.5% | Egg Production ([11]; B + 400 ppb Cr in diet): 81.6% | Effect on egg production ([11]; at 100 ppb Cr): numerical increase in egg production | Effect on egg production [11, 17]: not observed to affect egg production | Egg CH (cholesterol) ([12]; B + 50 ppb Cr in diet): 12.1 mg/g yolk | Egg CH (cholesterol) ([12]; B + 100 ppb Cr in diet): 11.7 mg/g yolk | Egg CH (cholesterol) ([12]; B + 200 ppb Cr in diet): 11.9 mg/g yolk | Egg CH (cholesterol) ([12]; B + 400 ppb Cr in diet): 12.1 mg/g yolk | Egg CH (cholesterol) ([12]; B + 800 ppb Cr in diet): 11.9 mg/g yolk | Effect on egg CH ([12]; CrPic supplementation overall, P>0.1): not affected | Effect on egg CH by Day 28 ([12]; by Day 28 of the trial, Cr quadratic, P<0.05): reduced | Effect on egg CH [12, 18]: tended to be lower | Egg Production ([13]; B + 100 ppb Cr in diet): 83.0% | Egg Production ([13]; B + 200 ppb Cr in diet): 82.1% | Egg Production ([13]; B + 300 ppb Cr in diet): 74.8% | Egg Production ([13]; B + 400 ppb Cr in diet): 77.1% | Effect on egg production ([13]; at 100 ppb Cr): numerical increase in egg production | Effect on egg production [13, 17]: not observed to affect egg production | Egg Production ([14]; B + 50 ppb Cr in diet): 79.3% | Egg Production ([14]; B + 100 ppb Cr in diet): 81.1% | Egg Production ([14]; B + 200 ppb Cr in diet): 83.2% | Egg Production ([14]; B + 400 ppb Cr in diet): 76.1% | Egg Production ([14]; B + 800 ppb Cr in diet): 77.7% | Effect on egg production ([14]; at 400 and 800 ppb Cr, Cr cubic, P<0.03): decreased | Optimum dosage of CrPic for egg production ([14]; in the diet, from the experiments of Examples 1-3): 100-200 ppb Cr | Effect on egg production ([14]; supplementing the diet with CrPic, summary statement): incrementally increased in some circumstances | Effect on egg production ([14]; through 200 ppb Cr, Cr cubic, P<0.03): increased | Egg fat ([15]; B + 50 ppb Cr in diet): 10.2% | Egg fat ([15]; B + 100 ppb Cr in diet): 10.6% | Egg fat ([15]; B + 200 ppb Cr in diet): 10.8% | Egg fat ([15]; B + 400 ppb Cr in diet): 10.0% | Egg fat ([15]; B + 800 ppb Cr in diet): 9.9% | Effect on percentage of egg fat ([15]; hens receiving 50, 400, and 800 ppb Cr): lower | Effect on percentage of egg fat [15, 18]: higher | Specific gravity ([16]; B + 50 ppb Cr in diet): 1.085 | Specific gravity ([16]; B + 100 ppb Cr in diet): 1.084 | Specific gravity ([16]; B + 200 ppb Cr in diet): 1.084 | Specific gravity ([16]; B + 400 ppb Cr in diet): 1.084 | Specific gravity ([16]; B + 800 ppb Cr in diet): 1.085 | Effect on specific gravity ([16]; P>0.1): not affected
